Source: PubChem BioAssay AID296 (DTP/NCI, 2004)
Where “and” joins values, the source holds several entries; their conditions need not be identical. Equal entries are not always repeated. Inconclusive results are not listed.

Tested on: MX-1 breast xenograft, nude mice, tumor weight T/C
Experiment: NCI In Vivo Anticancer Drug Screen. Data for tumor model Human Mammary Carcinoma MX-1 Xenograft (intrarenal inoculation) in NU/NU Swiss (nude) mice
Settings: endpoint: mean tumor weight change, higher = larger tumour
Outline: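 Tumor-bearing mice were treated with test compound alongside a vehicle-treated control group. Survival or tumor size was measured, and activity is expressed as the treated-group value divided by the control-group value.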

[1] = dose: 300.0 mg/kg/injection, schedule: Q04DX003 (sc), vehicle: saline with Tween-80
[2] = dose: 600.0 mg/kg/injection, schedule: Q04DX003 (sc), vehicle: saline with Tween-80
[3] = dose: 1200.0 mg/kg/injection, schedule: Q04DX003 (sc), vehicle: saline with Tween-80
[4] = dose: 100.0 mg/kg/injection, schedule: Q04DX003 (sc), vehicle: saline

Question: With `CC1(C)OC(=O)N(CO)C1=O` as the compound, how does the T/C (dose: 25.0 mg/kg/injection, schedule: Q01DX010 (sc), vehicle: saline) read?
Answer: Its T/C is 45 % of control.

Question: What about the T/C (dose: 50.0 mg/kg/injection, schedule: Q01DX010 (sc), vehicle: saline) of the same compound?
Answer: The T/C was 31 % of control.

Question: And the T/C (dose: 100.0 mg/kg/injection, schedule: Q01DX010 (sc), vehicle: saline)?
Answer: The T/C was 48 % of control.

Question: What about the T/C (dose: 200.0 mg/kg/injection, schedule: Q01DX010 (sc), vehicle: saline) of the same compound?
Answer: The T/C was 114 % of control.

Question: Which T/C (dose: 150.0 mg/kg/injection, schedule: Q04DX003 (sc), vehicle: saline with Tween-80) does the source give for `CCOC(=O)c1cn(C)c2c1C(O)=C(C(=O)OC)CC(=O)N2` here?
Answer: The T/C was 95 % of control.

Question: And the T/C [1]?
Answer: Its T/C is 80 % of control.

Question: What about the T/C [2] of the same compound?
Answer: Its T/C is 85 % of control.

Question: And the T/C [3]?
Answer: The T/C was 90 % of control.

Question: How did the T/C (dose: 3.12 mg/kg/injection, schedule: Q04DX003 (sc), vehicle: water) turn out when `O=NN(CCCl)C(=O)NCCO` was run?
Answer: Its T/C is 72 % of control and 208 % of control.

Question: And the T/C (dose: 12.5 mg/kg/injection, schedule: Q04DX003 (sc), vehicle: water)?
Answer: Its T/C is 10 % of control.

Question: Which T/C [4] does the source give for `c1csc(C[N+]23CN4CN(CN(C4)C2)C3)c1` here?
Answer: The T/C was 108 % of control.

Question: What about the T/C (dose: 400.0 mg/kg/injection, schedule: Q04DX003 (sc), vehicle: saline) of the same compound?
Answer: The T/C was 93 % of control.

Question: `CCCCCCCCCCCCSC1=C(Cl)C(=O)C(OC)=C(OC)C1=O` was tested. Which T/C [1] did it give?
Answer: The T/C was 47 % of control.

Question: And the T/C [2]?
Answer: Its T/C is 77 % of control.

Question: With `CN(N=O)C(N)=O` as the compound, how does the T/C (dose: 12.5 mg/kg/injection, schedule: Q01DX010 (sc), vehicle: saline with Tween-80) read?
Answer: Its T/C is 41 % of control.

Question: What about the T/C (dose: 12.5 mg/kg/injection, schedule: Q04DX003 (sc), vehicle: saline) of the same compound?
Answer: Its T/C is 83 % of control.

Question: And the T/C (dose: 25.0 mg/kg/injection, schedule: Q04DX003 (sc), vehicle: saline)?
Answer: Its T/C is 54 % of control.

Question: What about the T/C (dose: 25.0 mg/kg/injection, schedule: Q04DX003 (sc), vehicle: suspension in saline) of the same compound?
Answer: Its T/C is 54 % of control.

Question: What about the T/C (dose: 50.0 mg/kg/injection, schedule: Q04DX003 (sc), vehicle: saline with Tween-80) of the same compound?
Answer: Its T/C is 17 % of control.

Question: And the T/C (dose: 50.0 mg/kg/injection, schedule: Q04DX003 (sc), vehicle: saline)?
Answer: Its T/C is 6 % of control.

Question: And the T/C (dose: 50.0 mg/kg/injection, schedule: Q04DX003 (sc), vehicle: suspension in saline)?
Answer: The T/C was 63 % of control.

Question: What about the T/C (dose: 100.0 mg/kg/injection, schedule: Q04DX003 (sc), vehicle: saline with Tween-80) of the same compound?
Answer: The T/C was -68 % of control.

Question: What about the T/C [4] of the same compound?
Answer: Its T/C is -100 % of control.

Question: What about the T/C (dose: 100.0 mg/kg/injection, schedule: Q04DX003 (sc), vehicle: suspension in saline) of the same compound?
Answer: Its T/C is 17 % of control.

Question: What does the source list for `CC[C@@]1(O)C[C@H](OC2CC(N(C)C)C(OC3CC(O)C(OC4CCC(=O)C(C)O4)C(C)O3)C(C)O2)c2c(cc3c(c2O)C(=O)c2c(O)ccc(O)c2C3=O)[C@H]1C(=O)OC` (some centres not stated)?
Answer: T/C (dose: 3.0 mg/kg/injection, schedule: Q04DX003 (sc), vehicle: water): 88 % of control; T/C (dose: 6.0 mg/kg/injection, schedule: Q04DX003 (sc), vehicle: water): 43 % of control

Question: What does the source list for `C=C(C(=O)O)C(N)C(=O)O` (configuration not stated)?
Answer: T/C (dose: 300.0 mg/kg/injection, schedule: Q04DX003 (sc), vehicle: suspension in saline): 96 % of control; T/C (dose: 600.0 mg/kg/injection, schedule: Q04DX003 (sc), vehicle: suspension in saline): 78 % of control; T/C (dose: 1200.0 mg/kg/injection, schedule: Q04DX003 (sc), vehicle: suspension in saline): 88 % of control

Question: With `C=C(C)[C@H]1Cc2c(ccc3c2O[C@@H]2COc4cc(OC)c(OC)cc4[C@@H]2C3=O)O1` as the compound, how does the T/C (dose: 4.0 mg/kg/injection, schedule: Q01DX010 (sc), vehicle: saline with Tween-80) read?
Answer: The T/C was 94 % of control.

Question: What about the T/C (dose: 8.0 mg/kg/injection, schedule: Q01DX010 (sc), vehicle: saline with Tween-80) of the same compound?
Answer: The T/C was 80 % of control.

Question: How did the T/C (dose: 12.5 mg/kg/injection, schedule: Q04DX003 (ip), vehicle: water) turn out when `N#Cc1ccc(NN=O)nc1` was run?
Answer: The T/C was 110 % of control.

Question: And the T/C (dose: 25.0 mg/kg/injection, schedule: Q04DX003 (ip), vehicle: water)?
Answer: The T/C was 18 % of control.

Question: What about the T/C (dose: 50.0 mg/kg/injection, schedule: Q04DX003 (ip), vehicle: water) of the same compound?
Answer: Its T/C is 18 % of control.

Question: What about the T/C (dose: 100.0 mg/kg/injection, schedule: Q04DX003 (ip), vehicle: water) of the same compound?
Answer: Its T/C is 20 % of control.

Question: For `CC[C@H](CC[C@@H](C)C1CC[C@H]2[C@@H]3CC=C4C[C@@H](OP(=O)(N5CC5)N5CC5)CC[C@]4(C)[C@H]3CC[C@]12C)C(C)C` (some centres not stated), which T/C [1] is on record?
Answer: The T/C was 71 % of control.

Question: And the T/C [2]?
Answer: The T/C was 113 % of control.

Question: And the T/C [3]?
Answer: The T/C was 65 % of control.

Question: What about the T/C (dose: 2400.0 mg/kg/injection, schedule: Q04DX003 (sc), vehicle: saline with Tween-80) of the same compound?
Answer: Its T/C is 62 % of control.

Question: Which T/C (dose: 3.75 mg/kg/injection, schedule: Q04DX003 (sc), vehicle: Klucel (hydroxypropylcellulose) (HPC)) does the source give for `C=C1C(C)C2C(Cc3ccccc3)NC(=O)C23C(OC(C)=O)C=CC(C)(O)C(=O)C(C)C/C=C/C3C1O` (configuration not stated) here?
Answer: Its T/C is 344 % of control.

Question: And the T/C (dose: 7.5 mg/kg/injection, schedule: Q04DX003 (sc), vehicle: Klucel (hydroxypropylcellulose) (HPC))?
Answer: Its T/C is 528 % of control.

Question: What about the T/C (dose: 15.0 mg/kg/injection, schedule: Q04DX003 (sc), vehicle: Klucel (hydroxypropylcellulose) (HPC)) of the same compound?
Answer: Its T/C is 497 % of control.
